SMILES strings stand for the structures. Counter-ions that a name gives are not always drawn.

Nine compounds from US8551999B2, “Heterocyclic compound and pharmaceutical composition thereof” (Otsuka Pharmaceutical Co., Ltd., priority 2007, dated 2013) can be followed below.

For series [1], the system named is human hepatic cancer cells (HuH-7). Briefly: Antiproliferative effect on cancer cells (in vitro), sulforhodamine B method, HuH-7. Type of series: cell-based. As to conditions: HuH-7 cells, 5 days incubation with test compound. As to the method:
(§1) Growth inhibition of human hepatic cancer cells (HuH-7) was determined by the sulforhodamine B method based on the method of Skehan P. et al. (J Natl Cancer Inst. 1990 Jul. 4; 82(13): 1107-12). In the study, HuH-7 cells were seeded on DMEM medium containing 10% fetal bovine serum in a 96-well microplate. After 24-hour incubation at 37° C. in the presence of 5% carbon dioxide, the test compound was added and the cells were incubated for another 5 days. After incubation, a trichloroacetic acid solution was added to yield the final concentration of 10% and the cells were left to stand at 4° C. for 1 hour to fix. Then, the cells were washed with water to remove the medium and trichloroacetic acid and dried in the air. The dried cells were stored at 4° C. until they were stained with sulforhodamine B. To each well, 1% acetic acid solution containing 0.4% sulforhodamine B was added and left to stand for 20 to 30 minutes at room temperature. After discarding the supernatant, each well was washed with 1% acetic acid solution, and 10 mM Tris ([…]) solution was added while stirring to elute the dye taken into the cells. Then, the optical density was determined at the measurement wavelength of 492 nm and the reference wavelength of 690 nm, and the difference was calculated. The cell growth activity in each well was defined as the value determined by subtracting the OD in the control well not containing cells (the difference in absorbance between 492 nm and 690 nm) from that in the test well.
(§2) The 50% inhibitory concentration (IC50 (nM)) of the test compound was determined by comparing the cell growth activity in the well containing the test compound with that of the control not containing the test compound.
On the technique in general: The SRB assay estimates cell density from bound dye.

For series [2], the system named is human pancreatic cancer cells (HPAC). The series can be described thus: Antiproliferative effect on cancer cells (in vitro), sulforhodamine B method, HPAC. The format is cell-based. The following applies: 5 days incubation with test compound. As to the method:
as §1, §2
The growth inhibition on human pancreatic cancer cells (HPAC) was also determined by the above method using HPAC instead of HuH-7 and RPMI 1640 medium containing 10% fetal bovine serum instead of the DMEM medium containing 10% fetal bovine serum.

For series [3], the system named is human chronic myelocytic leukemia cells (KU812). Briefly: Antiproliferative effect on cancer cells (in vitro), WST-8 assay, KU812. The format is cell-based. The following applies: 5 days incubation with test compound. As to the method: The growth inhibition on human chronic myelocytic leukemia cells (KU812) was determined by a WST-8 assay according to the method of Singh A K, et al. (Cancer Lett. 1996 Oct. 1; 107(1): 109-15.). In this method, KU812 cells were seeded in RPMI 1640 medium containing 10% fetal bovine serum in a 96-well microplate and incubated at 37° C. for 24 hours in the presence of 5% carbon dioxide. Then, the test compound was added and the cells were incubated for another 5 days. After incubation, 15 μL of 5 mM WST-8 (2-(2-methoxy-4-nitrophenyl)-3-(4-nitrophenyl)-5-(2,4-disulfenyl)-2H-tetrazolium, monosodium salt) was added and the cells were incubated for 2 hours. After the 2-hour incubation, 15 μL of 1% SDS (sodium dodecyl sulfate) was added and the optical density was determined at the measurement wavelength of 450 nm and the reference wavelength of 630 nm, and the difference was calculated. The cell growth activity in each well was defined as the value determined by subtracting the OD in the control well not containing cells (the difference in absorbance between 492 nm and 690 nm) from that in the test well.
as §2
For orientation: Formazan colour is commonly taken as a measure of viable cells.

The subject of series [4] is LI90 cells, a human hepatic stellate cell line. The series can be described thus: Inhibitory effect on collagen synthesis (in vitro). The format is cell-based. The following applies: in the presence of recombinant human TGF-β1, 3H-proline labelled collagen in supernatant. As to the method: Inhibitory Effect on Collagen Synthesis (In Vitro)
LI90 cells, a human hepatic stellate cell line, were suspended in DMEM (Dulbecco's modified eagle medium) supplemented with 10% inactivated FBS (fetal bovine serum), seeded on a 12-well plate and cultured in a CO2 incubator (preset temperature: 37° C., preset CO2 concentration: 5%). After being cultured for 24 hours, the cells were washed with D-PBS (Dulbecco's phosphate buffered saline), placed in MEM (Eagle's minimum essential medium) supplemented with 0.1% inactivated FBS and then cultured in a CO2 incubator. After being cultured for 3 days, the cells were again washed with D-PBS, placed in MEM (Eagle's minimum essential medium) supplemented with 0.1% inactivated FBS and treated with or without a test compound in the presence of […] recombinant human TGF-β1 (transforming growth factor-β1) in a CO2 incubator for 16 hours. After the incubation, the cells were washed with D-PBS and the medium was replaced with MEM containing 0.25 mM ascorbate. A radio-labeled compound, ^3H-proline, was then added to the culture medium to radio-label the collagen proteins produced. After being cultured for 24 hours, the supernatant was collected and the collagen proteins were extracted from the supernatant as acid-soluble fractions. The amount of collagen produced was determined by measuring the radioactivity contained in the fractions. A concentration of test compound that produced 50% inhibition [IC50 value (nM)] on collagen synthesis was calculated by comparing the radioactivity count in a supernatant of test-compound-treated cells with that of untreated cells (control).

The test system of a further series is STAT3. The series can be described thus: Inhibitory effect on IL-6-induced STAT3 phosphorylation in human myeloma cells (in vitro). The following applies: U266B1 human myeloma cells, IL-6 1 ng/mL, pSTAT3 (Y705) by flow cytometry. The format is cell-based. As to the method: The inhibitory effect of the test compound on phosphorylation of STAT3 (signal transducer and activator of transcription-3) in human myeloma cells ([…]) induced by interleukin-6 (IL-6) was examined using the modified method of Tochizawa S. et al. (J Immunol Methods. 2006 Jun. 30; 313(1-2): 29-37). In the study, U266B1 cells were seeded in an RPMI 1640 medium containing 10% fetal bovine serum (FBS) in a 12-well plate and incubated at 37° C. for 2 hours in the presence of carbon dioxide. After incubation, IL-6 was added to yield the concentration of 1 ng/mL and the cells were incubated at 37° C. for 15 minutes in the presence of 5% carbon dioxide. After fixation of the cells by the addition of a buffer containing formaldehyde (Lyse/Fix Buffer, BD Biosciences) at room temperature for 10 minutes, the suspension was centrifuged to remove the supernatant and the cells were treated with ice-cold methanol for 10 minutes to improve the permeability of the cell membrane. The cells were centrifuged to remove methanol and washed twice with Dulbecco's phosphate buffered saline (D-PBS) containing 2% fetal bovine serum (FBS). A fluorescence-labeled anti-phosphorylated STAT3 (pSTAT3) antibody (Alexa Fluor 488-labeled anti-pSTAT3 (Y705) antibody, BD Biosciences) was added for staining in an ice bath for 30 minutes.
The cells were washed once with 2% FBS-containing D-PBS and suspended in 2% FBS-containing D-PBS, and the fluorescence intensity was determined using a flow cytometer (FACS Sort, BD Biosciences). The ratio of fluorescence intensity in the test group to the control group (T/C) was determined from the difference in the geometric mean of pSTAT3 fluorescence intensity between the test compound group of each concentration and the non-stimulated control group according to the following equation by defining the difference in the geometric mean of pSTAT3 fluorescence intensity between the IL-6 induced control and the non-stimulated control as 100%. T/C(%)=([…] of pSTAT3 fluorescence intensity in the cells treated with the test compound—geometric mean of pSTAT3 fluorescence intensity in non-stimulated control)/(geometric mean of fluorescence intensity of IL-6-induced pSTAT3 in the control−geometric mean of pSTAT3 fluorescence intensity in non-stimulated control)×100.
The concentration of the test compound inhibiting phosphorylation of STATS at 50% (IC50; concentration of the test compound corresponding to 50% T/C(%)) was determined using T/C(%) values at the respective concentrations and defined as the index for the inhibitory activity.
(In general: In flow cytometry, cells or beads pass a laser one at a time.)

For orientation: IC50 means the point on the concentration scale where inhibition reaches its midpoint. The term melting point denotes the temperature of the solid-liquid transition. For the compound `COc1ccc(S(=O)(=O)N(C)c2ccc(Oc3ccc4cc(C(=O)N5CCN(Cc6ccc(OCC(F)(F)F)cc6)CC5)n(C)c4c3)nc2)cc1.Cl` [Example 73, 4-Methoxy-N-methyl-N-[6-(1-methyl-2-{4-[4-(2,2,2-trifluoro-ethoxy)benzyl]piperazine-1-carbonyl}-1H-indol-6-yloxy)pyridin-3-yl]benzenesulfonamide hydrochloride], the melting point is 213.4 to 214.1 °C. For the same compound, in series [1] (Homo sapiens, 120 h), the IC50 is < 0.01 µM. Further, the IC50 in series [2] (Homo sapiens, 120 h) is < 0.07 µM. In addition, in series [3] (Homo sapiens, 120 h), the half-maximal inhibitory concentration (IC50) is < 0.002 µM.
As to `Br.CC(C)Oc1ccc(CN2CCN(C(=O)c3cc4ccc(Oc5ccc(NC(=O)c6ccc(C(F)(F)F)cc6Cl)cn5)cc4n3C)CC2)cc1` [Example 253, 2-Chloro-N-(6-{2-[4-(4-isopropoxybenzyl)piperazine-1-carbonyl]-1-methyl-1H-indol-6-yloxy}pyridin-3-yl)-4-trifluoromethylbenzamide hydrobromide], the melting point was 237.2 to 238.2 °C. In series [1] (Homo sapiens, 120 h), the IC50 is < 0.01 µM. Further, in series [2] (Homo sapiens, 120 h), the IC50 is < 0.07 µM. Further, the IC50 in series [3] (Homo sapiens, 120 h) was < 0.002 µM. Further, the IC50 in series [4] is < 0.01 µM.
Take `COc1ccc(CN2CCN(C(=O)c3cc4cc(Oc5ccc(N(C)C(=O)c6ccc(C(F)(F)F)cc6)cn5)ccc4n3C)CC2)cc1` [Example 338, N-(6-{2-[4-(4-Methoxybenzyl)piperazine-1-carbonyl]-1-methyl-1H-indol-5-yloxy}pyridin-3-yl)-N-methyl-4-trifluoromethylbenzamide maleate]: the IC50 is < 0.01 µM in series [1] (Homo sapiens, 120 h); < 0.07 µM in series [2] (Homo sapiens, 120 h); < 0.002 µM in series [3] (Homo sapiens, 120 h); < 0.01 µM in the series with STAT3.
Take `CCOc1ccc(CN2CCN(C(=O)c3cc4cc(Oc5ccc(N(C)C(=O)c6ccc(C(F)(F)F)cc6)c(C)n5)ccc4n3C)CC2)cc1` [Example 368, N-(6-{2-[4-(4-Ethoxybenzyl)piperazine-1-carbonyl]-1-methyl-1H-indol-5-yloxy}-2-methylpyridin-3-yl)-h=methyl-4-trifluoromethyl-benzamide hydrobromide]: the IC50 in series [1] was < 0.01 µM; in series [2], < 0.07 µM; in series [3] it was < 0.002 µM.
On to `CCc1ccc(CN2CCN(C(=O)c3cc4cc(Oc5ccc(N(C)C(=O)c6ccc(C(F)(F)F)cc6)cn5)ccc4n3C)CC2)cc1.O=C(O)C(=O)O` [Example 391, N-(6-{2-[4-(4-Ethylbenzyl)piperazine-1-carbonyl]-1-methyl-1H-indol-5-yloxy}pyridin-3-yl)-N-methyl-4-trifluoromethylbenzamide oxalate], for which the melting point was 167 to 169 °C. In series [1] (Homo sapiens, 120 h), the IC50 was < 0.01 µM. In addition, in series [2] (Homo sapiens, 120 h), the IC50 is < 0.07 µM. The IC50 in series [3] (Homo sapiens, 120 h) was < 0.002 µM.
As to `CC(C)Oc1ccc(CN2CCN(C(=O)c3cc4cc(Oc5ccc(N(C)C(=O)c6ccc(C(F)(F)F)cc6)cn5)ccc4n3C)CC2)cn1.O=C(O)/C=C\C(=O)O` [Example 424, N-(6-{2-[4-(6-Isopropoxypyridin-3-ylmethyl)piperazine-1-carbonyl]-1-methyl-1H-indol-5-yloxy}pyridin-3-yl)-N-methyl-4-tri-fluoromethylbenzamide maleate], the melting point was 157 to 159 °C. In addition, the IC50 in series [1] (Homo sapiens, 120 h) is < 0.01 µM. In addition, in series [2] (Homo sapiens, 120 h), the IC50 was < 0.07 µM. In series [3] (Homo sapiens, 120 h), the IC50 was < 0.002 µM. The IC50 in series [4] was < 0.01 µM.
As to `Cc1c(Oc2ccc(N(C)C(=O)c3ccc(C(F)(F)F)cc3)cn2)ccc2c1cc(C(=O)N1CCN(Cc3ccc(C(C)C)cc3)CC1)n2C` [Example 428, N-(6-{2-[4-(4-Isopropylbenzyl)piperazine-1-carbonyl]-1,4-dimethyl-1H-indol-5-yloxy}pyridin-3-yl)-N-methyl-4-trifluoro-methylbenzamide hydrobromide], the IC50 in series [1] is < 0.01 µM; in series [2] it was < 0.07 µM; in series [3], < 0.002 µM; in series [4], < 0.01 µM.
For the compound `Br.CN(C(=O)c1ccc(C(F)(F)F)cc1)c1ccc(Oc2ccc3cc(C(=O)N4CCN(Cc5ccc(OCC(F)(F)F)cc5)CC4)n(C)c3c2)nc1` [Example 436, N-Methyl-N-[6-(1-methyl-2-{4-[4-(2,2,2-trifluoroethoxy)benzyl]-piperazine-1-carbonyl}-1H-indol-6-yloxy)pyridin-3-yl]-4-tri-fluoromethylbenzamide hydrobromide], the melting point was in the range of 225 to 226.4 °C. In series [1] (Homo sapiens, 120 h), the half-inhibitory concentration (IC50) is < 0.01 µM. In addition, in series [2] (Homo sapiens, 120 h), the IC50 was < 0.07 µM. Moreover, the IC50 in series [3] (Homo sapiens, 120 h) was < 0.002 µM. Also, the IC50 in series [4] was < 0.01 µM. The concentration for half-maximal inhibition (IC50) in the series on STAT3 is < 0.01 µM.
The compound `Cn1c(C(=O)N2CCN(Cc3ccc(-c4csnn4)cc3)CC2)cc2ccc(Oc3ccc(NC(=O)c4ccc(C(F)(F)F)cc4)cn3)cc21` [Example 571, N-(6-{1-Methyl-2-[4-(4-[1,2,3]thiadiazol-4-ylbenzyl)piperazine-1-carbonyl]-1H-indol-6-yloxy}pyridin-3-yl)-4-trifluoromethyl-benzamide] gave a melting point of 220 to 220.8 °C. The IC50 in series [1] (Homo sapiens, 120 h) is < 0.01 µM. Moreover, the IC50 in series [2] (Homo sapiens, 120 h) is < 0.07 µM. Further, the IC50 in series [3] (Homo sapiens, 120 h) was < 0.002 µM.
